Source: article PMC11089561, “Structural Investigations of Phthalazinone Derivatives as Allosteric Inhibitors of Human DNA Methyltransferase 3A” (ACS Medicinal Chemistry Letters, 2024)

How the values were obtained:
DNMT3A = target: DNMT3A; set-up: method as in PMID 33705897; conditions: with SAM; read-out: Ki with S-adenosyl methionine (SAM, AdoMet); cited from earlier work
[1] = target: T1, DNMT3A_CD (catalytic domain of DNMT3A) (Homo sapiens, UniProt Q9Y6K1); test: In vitro methylation assay, IC50 determination ([3H]-SAM, poly dI-dC); format: biochemical; conditions: 150 nM DNMT3A, 10 uM SAM, 10 uM poly dI-dC; 1 hour preincubation; Hill slope constrained to -2
T1 construct: The catalytic domain of DNMT3A (residues 634 -912) were used for all experiments; made in house; host or cells: E. coli NiCo21 (DE3) (NEB)
T1 sequence (Q9Y6K1 634-912): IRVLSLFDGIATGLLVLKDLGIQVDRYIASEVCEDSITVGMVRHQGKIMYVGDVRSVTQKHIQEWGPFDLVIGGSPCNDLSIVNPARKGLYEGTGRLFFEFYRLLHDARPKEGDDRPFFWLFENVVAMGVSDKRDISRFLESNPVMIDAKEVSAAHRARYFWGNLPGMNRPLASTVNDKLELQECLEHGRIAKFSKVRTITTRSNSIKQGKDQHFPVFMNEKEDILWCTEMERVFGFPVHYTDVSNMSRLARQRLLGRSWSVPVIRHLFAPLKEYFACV
Procedure: Expression and Purification of DNMT3A_CD
The catalytic domain of DNMT3A (residues 634 -912) were used for all experiments […]
DNMT3A_CD was expressed in NiCo21 (DE3) cells (NEB) using a codon optimized plasmid pET28a-hDNMT3A_CD (∆1-611). Cell cultures were grown in LB medium at 37 °C to an OD600 = 0.8. Cultures were cooled to 25 °C, then expression was induced by the addition of 1 mM IPTG (Gold Biotechnology). Cells were harvested by centrifugation after 5 hours and flash frozen in liquid nitrogen for storage at -80 °C.
Cells were resuspended in lysis buffer containing 50 mM K2HPO4/KH2PO4, 500 mM NaCl, 50 mM imidazole, 10% glycerol [v/v], 1 mM EDTA and 1 mM PMSF at pH 7.8.
Sonication was used for lysis and the supernatant was collected after centrifugation at 18,000 x g for 1 hour. Lysates were applied to an ÄKTA start FPLC system (GE healthcare) and loaded onto a 1 mL HisTrap Excel column (Cytiva). The column was washed with 50 mL of lysis […]
(§1) buffer and eluted with an identical buffer containing a higher imidazole concentration of 500 mM. Eluted protein was desalted with a 5 mL HiTrap Desalting column (Cytiva) and flash frozen in liquid nitrogen for storage at -80 °C. DNMT3A_CD concentration was determined using UV-vis with an extinction coefficient determined by protparam of 38,180 M-1 cm-1 to represent the monomeric state.
(§2) In Vitro Methylation Assays
(§3) Methylation assays were used to determine nanomolar amounts of methylated DNA product. Reactions were carried out in 50 mM K2HPO4/KH2PO4 at pH 7.8, 1 mM EDTA, 1 mM DTT, 0.2 mg/mL BSA, 20 mM NaCl, 150 nM DNMT3A_CD, 10 uM poly dI-dC (Sigma Aldrich), and 10 uM SAM (Sigma Aldrich) unless otherwise stated. The SAM cofactor was diluted with [3H]-SAM from PerkinElmer in 10 mM H2SO4. All inhibitors were dissolved and diluted in DMSO prior to addition to methylation reactions. Reactions with and without […]
All reactions containing inhibitors were preincubated with DNMT3A and inhibitor for 1 hour. Reactions were activated with poly dI-dC to a final volume of 20 uL, then incubated at 37 °C for 1 hour. Reaction aliquots were spotted on Hybond-N+ membranes (GE healthcare), then washed with 50 mM K2HPO4/KH2PO4 at pH 7.8 and ethanol. Membranes were dried and counted using a Hidex LS 300 scintillation counter. […]
Determination of IC50 Value
Percent activity of methylation assays was determined by comparing activities of assays with inhibitor to assays without inhibitor. Sigmoidal dose-response curves of percent activity vs compound concentration were fitted in Prism 10.
All assays were performed in triplicate, with additional repetitions added as necessary. […]
14). Reactions consisted of 150 nM DNMT3A, 10 uM SAM, and 10 uM poly dI -dC. The data

[2] = tested on: acute myeloid leukemia cell; set-up: method as in PMID 35866897; conditions: cited from earlier work
[3] = set-up: method as in PMID 26935942; conditions: versus FDA-approved inhibitors (azacytidine and decitabine); cited from earlier work
[4] = target: T1, DNMT3A_CD (catalytic domain of DNMT3A); test: Kinetics studies: methylation assays with varied SAM or poly dI-dC, fit to inhibition models; format: biochemical; conditions: for α coefficient from mixed-type inhibition model, varied SAM: SAM varied 0.15-10 uM, poly dI-dC 10 uM; for α coefficient from mixed-type inhibition model, varied SAM / α coefficient from mixed-type inhibition model, varied DNA: α < 1 = preference for enzyme-substrate complex; for α coefficient from mixed-type inhibition model, varied DNA: poly dI-dC varied 0.15-10 uM, SAM 10 uM; for Best fit inhibition model: with DNA and SAM varied, R2 comparison and F-test, p-value < 0.0001
Excerpt: Using methylation assays with and without inhibitor and varied concentrations of DNA or SAM, we generated nonlinear Michaelis–Menten curves with corresponding double-reciprocal plots (Figure S2) and fit them to classical inhibition models. […] By analyzing double-reciprocal plots, this mechanistic model was confirmed because the changes in y-intercept and slope are inconsistent with competitive and uncompetitive forms of inhibition, respectively. […] Furthermore, the selected analogs also bind more tightly to the enzyme–substrate complex than to the free enzyme with both DNA and SAM (Table S2). This preference could be beneficial since DNMT3A bound to DNA is likely the dominant species in a cellular context. […]
as §1, §2, §3
All reactions containing inhibitors were preincubated with DNMT3A and inhibitor for 1 hour. Reactions were activated with poly dI-dC to a final volume of 20 uL, then incubated at 37 °C for 1 hour. Reaction aliquots were spotted on Hybond-N+ membranes (GE healthcare), then washed with 50 mM K2HPO4/KH2PO4 at pH 7.8 and ethanol. Membranes were dried and counted using a Hidex LS 300 scintillation counter.
In vitro methylation assays were performed as described above using two concentrations of inhibitor (0 uM and ~IC50) and varied concentrations of substrate SAM or poly dI-dC while the other substrate is held at a saturating concentration of 10 uM. For the variation of SAM, concentrations of 0.15, 0.25, 0.5, 1, 3 and 10 uM were used, while for the variation of poly dI-dC concentrations of 0.15, 0.25, 0.5, 1, 2.5, and 10 uM were used. Data was fitted globally with Prism 10 and best-fit inhibition models were determined using an F-test (p < 0.0001).
Lineweaver-Burke plots were generated and fit to a linear regression model. Data represent the mean and standard deviation of three independent reactions. […]
Figure S2: Double reciprocal plots for 1a (A, B), 3 (C, D), 4 (E, F), 5 (G, H), and 10 (I, J) with DNA and SAM. The data points represent the mean and standard deviation of three independent reactions. Reactions were done at initial velocity conditions using 150 nM DNMT3A, and varied concentrations of one substrate (0.15 –10 uM) while the other was saturated at 10 uM. Linear fits […]
competitive inhibition and uncompetitive inhibition respectively.
(1 picture or pasted object on this page, not shown here) […]
coefficient is a measure of the inhibitor’s preference for E and ES kinetic species.
Table S1: Determination of best fit inhibition models for 1a, 3, 4, 5, and 10 by R2 comparison […]
Most of the inhibitors have α < 1, where the inhibitor prefers the enzyme-substrate complex. […]

Row | Compound | IC50 [1] [µM] | Best fit inhibition model [4] | further results
1 | COc1ccc(C2=NN(C3CCCCCC3)C(=O)[C@@H]3CC=CC[C@H]23)cc1OCCCCOc1ccc(-c2nnn[nH]2)cc1 [Compound 1a] | 14 ± 2 | mixed-type inhibition model | Ki (DNMT3A): 9.16 to 18.9 µM; AML cell differentiation [2]: induce acute myeloid leukemia cell differentiation; Cytotoxicity [3]: significantly less cytotoxic than FDA-approved inhibitors; α coefficient from mixed-type inhibition model, varied SAM [4]: < 1; α coefficient from mixed-type inhibition model, varied DNA [4]: < 1
2 | COc1ccc(C2=NN(C3CCCCCC3)C(=O)C2(C)C)cc1OCCCCOc1ccc(-c2nnn[nH]2)cc1 [Compound 1b] | – | – | Ki (DNMT3A): 3.7 to 7.06 µM; AML cell differentiation [2]: induce acute myeloid leukemia cell differentiation; Cytotoxicity [3]: significantly less cytotoxic than FDA-approved inhibitors
3 | COc1ccc(C2=NN(C3CCCCCC3)C(=O)[C@@H]3CC=CC[C@H]23)cc1OCCCCOc1ccc(C#N)cc1 [Compound 2] | > 300 | – | –
4 | COc1ccc(C2=NN(C3CCCCCC3)C(=O)[C@@H]3CC=CC[C@H]23)cc1OCCCCOc1ccc(C(=O)O)cc1 [Compound 3] | 23 | mixed-type inhibition model | α coefficient from mixed-type inhibition model, varied DNA [4]: > 1
5 | O=C1[C@@H]2CC=CC[C@@H]2C(c2cccc(OCCCCOc3ccc(-c4nn[nH]n4)cc3)c2)=NN1C1CCCCCC1 [Compound 4] | 10 | mixed-type inhibition model | –
6 | CN1N=C(c2cccc(OCCCCOc3ccc(-c4nn[nH]n4)cc3)c2)[C@H]2CC=CC[C@H]2C1=O [Compound 5] | 41 | mixed-type inhibition model | –
7 | O=C1[C@@H]2CC=CC[C@@H]2C(c2cccc(OCCCCOc3ccc(-c4nn[nH]n4)cc3)c2)=NN1Cc1ccccc1 [Compound 6] | 13 | – | –
8 | O=C1[C@@H]2CC=CC[C@@H]2C(c2cccc(OCCCCOc3ccc(-c4nn[nH]n4)cc3)c2)=NN1Cc1ccc(F)c(F)c1 [Compound 7] | 18 | – | –
9 | O=C1[C@@H]2CC=CC[C@@H]2C(c2cccc(OCCCOc3ccc(-c4nn[nH]n4)cc3)c2)=NN1C1CCCCCC1 [Compound 8] | 11 | – | –
10 | O=C1[C@@H]2CC=CC[C@@H]2C(c2cccc(OCCCCCOc3ccc(-c4nn[nH]n4)cc3)c2)=NN1C1CCCCCC1 [Compound 9] | 9 | – | –
11 | O=C1[C@@H]2CC=CC[C@@H]2C(c2cccc(OC/C=C\COc3ccc(-c4nn[nH]n4)cc3)c2)=NN1C1CCCCCC1 [Compound 10] | 11 | mixed-type inhibition model | α coefficient from mixed-type inhibition model, varied SAM [4]: > 1
12 | O=C1[C@@H]2CC=CC[C@@H]2C(c2cccc(OC/C=C/COc3ccc(-c4nn[nH]n4)cc3)c2)=NN1C1CCCCCC1 [Compound 11] | 13 | – | –
13 | O=C(COc1cccc(C2=NN(C3CCCCCC3)C(=O)[C@@H]3CC=CC[C@H]23)c1)Nc1ccc(-c2nn[nH]n2)cc1 [Compound 12] | 38 | – | –
14 | O=c1c2ccccc2c(-c2cccc(OCCCCOc3ccc(-c4nn[nH]n4)cc3)c2)nn1C1CCCCCC1 [Compound 13] | 13 | – | –
15 | c1ccc(OCCCCOc2ccc(-c3nn[nH]n3)cc2)cc1 [Compound 14] | > 100 | – | –
